Tests used:
[1] = Dynamic light scattering (DLS); assay type: physicochemical
Experimental: DLS was performed on a DynaPro-801 Molecular Sizing Instrument. Protein solutions (250 μl) prepared either in water or in 50% aqueous TFE at a concentration of ˜3 mg ml^−1 (sVpr) or 4 mg ml^−1 (Vpr^47-96) were injected through a 0.1-μm Whatman membrane filter. Samples were illuminated by a semiconductor laser (780 nm, 25 mW) generated by a miniature solid-state Ga1-yAlyAs-diode. The photons scattered at a 90° angle by the particles in the sample were collected by an avalanche photodiode, and the time-dependent fluctuation in intensity of the scattered light was analyzed. The translational diffusion coefficient DT was calculated with the manufacturer's software (Dynamics, version 2.1). DT was then used to calculate the degree of sample polydispersity and the hydrodynamic radius of gyration RH of the particles using the Stokes-Einstein equation: (RH=(kbT)*(6πηDT)^−1 where kb=Boltzman's constant, T=absolute temperature in Kelvin, and η=solvent viscosity). Mr was calculated on a standard curve (Mr vs. RH) supplied by the manufacturer. Ten continuous measurements were made for each sample.

HIV-1 virions = test: Incorporation of sVpr into HIV-1 virions (western blot); assay type: cell-based; settings: anti-Vpr and anti-p24
[2] = tested on: peripheral blood mononuclear cells; test: Transduction of freshly isolated peripheral blood mononuclear cells; assay type: cell-based, human
Source text: (§1) Full length Vpr was chemically synthesized and fluorescently labeled, purified by reverse phase HPLC, and added to the extracellular media of various cell cultures. Flow cytometry and epifluorescence microscopy were employed to monitor cellular uptake of sVpr. The distribution of cells within different phases of the cell cycle was studied by To-Pro-3 dye staining of DNA followed by flow cytometric analysis.

Jurkat T cells [3] = test: G2 cell cycle arrest in transduced Jurkat T cells; assay type: cell-based, human; settings: transduced subpopulations
Source text: as §1

[4] = Solubility / absence of precipitation in aqueous solution; assay type: physicochemical
cells [5] = test: Trypsin-insensitive cellular uptake at 37° C. or 4° C. (geometric mean fluorescence); assay type: cell-based; settings: presence or absence of trypsin
Source text: as §1

[6] = tested on: rat yolk choriocarcinoma L2-RYC cells; test: Cellular uptake of 125I-labeled peptides; assay type: cell-based
Experimental: sVpr and Vpu^32-81 were iodinated with the chloramine-T method. Briefly, ˜20 μg of peptides were reacted with 5.5×10^7 Bq (1.5 mCi) Na^125I. Free iodine was removed by gel filtration through a Dowex ion-exchange column saturated with bovine serum albumin (BSA). For studies on cellular uptake, rat yolk choriocarcinoma L2-RYC cells were grown in Dulbecco's modified Eagle's medium (DMEM) with 10% (v/v) fetal bovine serum (FBS) to 75% confluence on 24-well plates. Cells were washed once with phosphate-buffered saline (PBS) and incubated in serum-free DMEM supplemented with 0.1% BSA and ^125I-labeled sVpr or, as a negative control, ^125I-labeled Vpu^32-81. Radioactive peptides were added to the medium at a specific activity of 18 kBq ml^−1. In parallel, cells were also treated with a 100-fold excess of unlabeled sVpr or Vpu^32-81. Cells were incubated for specified times at 37° C., and the distribution of intra- and extracellular radioactivity was determined as described (50). […] Radioactivity was determined in triplicate in the medium and cell layer. To correct for nonspecific binding of peptides to the cell surface, the cell layer radioactivity determined at time point 0 min (time when radiolabeled peptides were added to the medium for less than 30 sec) was subtracted as background from the radioactivity detected in the cell layer.

Jurkat T cells [7] = test: Apoptosis induction in Jurkat T cells; assay type: cell-based, human; settings: by 3 days
Jurkat T cells [8] = test: sVpr uptake by Jurkat T cells (flow cytometry); assay type: cell-based, human
Source text: as §1

[9] = Immunization of rabbits with sVpr; assay type: in vivo, rabbit; settings: used to generate polyclonal and monoclonal antibodies
Source text: A rabbit polyclonal antiserum, R-96, was generated by immunization with sVpr.

cells [10] = test: Transduction with and without urea denaturation (percent of cells FITC+); assay type: cell-based
Source text: as §1

HIV-1 ΔVpr = HIV-1 ΔVpr replication in macrophages (RT activity) with sVpr in the extracellular medium; assay type: cell-based; settings: monocyte-derived macrophages
[11] = target: synthetic Vpr (sVpr), full-length, sequence derived from the isolate HIV-1 NL4-3 (HIV-1 (isolate NL4-3)) (UniProt P12520); test: SDS-PAGE without reducing agent, silver stain; dimers prevented by DTT

Vpr^47-96: peptide comprising the C-terminal domain of sVpr from positions Tyr-47 to Ser-96
hydrodynamic radius RH of major species (monomer, 94.2% abundance) ([1]; 50% TFE): 1.25
hydrodynamic radius RH ([1]; pure water (sVpr: 3.8 mg ml^−1, pH 3.0; components of 14% and 86% abundance)): ~3 nm

sVpr: synthetic full-length 96-amino acid HIV-1 Vpr, sequence derived from isolate HIV-1 NL4-3 (SEQ ID NO: 1), made by solid-phase peptide synthesis
incorporation into newly produced HIV-1 virions (HIV-1 virions): is incorporated into newly produced HIV-1 virions
transduction of CD4+, CD8+, CD3− lymphocytes and CD14+ monocytes ([2]; freshly isolated mixed cell populations): equivalently transduced
transduction of freshly isolated primary human cells ([2]; nanomolar concentrations): rapidly and strongly transduces
G2 cell cycle arrest (Jurkat T cells [3]): induces a dose-dependent G2 cell cycle arrest
concentration at which no precipitation was observed ([4]; aqueous solution): ≥ 4000 µg/mL
precipitation under CD solution conditions ([4]; phosphate buffer pH 3.9 to 7.2, water, TFE): no precipitation
cell entry at 4° C. (cells [5]): enters cells at 4 °C
level of intracellular peptide, maximum ([6]; 125I-labeled, within 2 hours, 37° C.): 8-10%
uptake with 100-fold excess of unlabeled sVpr ([6]; 120 min): not inhibited
apoptotic cells (Jurkat T cells [7]): approximately 90%
transduction of Jurkat T cells (Jurkat T cells [8]; 7.5, 15, 30 μg/ml): dose-dependent fashion
Cy3-positive cells (uptake) (Jurkat T cells [8]; Jurkat T cells, at 5 min): > 75%
immunogenicity [9]: highly immunogenic
effect of urea denaturation on transduction properties (cells [10]): does not enhance
replication of HIV viruses lacking Vpr (HIV-1 ΔVpr): significantly increases
hydrodynamic radius RH (average) ([1]; 50% TFE): 2.3 nm

synthetic Vpr (sVpr), full-length, sequence derived from the isolate HIV-1 NL4-3 (from UniProt P12520 1-96)
percent of molecules as disulfide-linked dimers [11]: 10%

From US6664040B2, “Compositions and methods for delivery of a molecule into a cell” (priority 2000, dated 2003)
